What was measured:
participants with NT1 [1] = experiment: Safety (TEAEs), LTE study interim analysis, NT1 participants; format: in vivo, human; conditions: for TEAE insomnia, frequency / TEAE micturition frequency, frequency / TEAE micturition urgency, frequency: LTE
Excerpt: This was a phase 2/3 multicenter, dose-blind, long-term extension (LTE) study of Compound A. Participants from controlled studies conducted with Compound A, who had up to a 3-month dosing gap between their parent study and the screening period for this study, were eligible to participate in this study.
Day 1 dosing for all participants occurred in-clinic with PK and safety assessments. Participants who were undergoing nocturnal polysomnography (nPSG) and an MWT during the final assessment of their Compound A parent study had the option of staying overnight in the clinic on Day −1 so they were already in the clinic for Day 1 the following day. Clinic visits after Week 4 were scheduled monthly up to Week 12, then approximately every 3 months until the end of Year 2 (Weeks 2, 4, 8, 12, 26, 38, 52, 64, 78, 90, and 104). […] Participants had either an in-clinic or home health follow up visit 4 weeks after their last dose. All other visits could be conducted through home health. Laboratory tests for safety were obtained biweekly up until Week 12, followed by monthly until Year 1, and then approximately every 3 months thereafter. Monthly phone calls were conducted to collect adverse event (AE) and concomitant medication information in Year 2.
In this dose-blind study, all participants received Compound A. Participants entering the study with or without a dosing gap from a parent Compound A study remained on the same indication-specific dose of Compound A assigned to them in their parent study. Participants randomized to placebo or comparator in their parent study were randomized to one of the indication-specific dose regimens of Compound A available in this study. The investigator could request a change to either a higher or lower dose level of Compound A to be dispensed at Week 8 in the LTE treatment period. Subsequently, if the participant wished to return to their original LTE dose, this could be implemented at Week 12 in the LTE. No further dose adjustments were allowed for the duration of the study, except on a case by case basis as approved by the sponsor. The dose never exceeded the maximum designated dose level in the study. For a participant with NT1, if the next highest dose was the 7 mg total daily dose, the participant was randomized to 1 of those 2 dose regimens (i.e., 2 mg followed by 5 mg, or 7 mg once daily).
Standard safety endpoints (e.g., TEAEs, physical examination findings, vital signs, 12-lead ECG measures, clinical laboratory results) for early clinical investigation were included. Further, because cardiovascular effects had been noted in nonclinical models with Compound A and OX2R agonists in general, and these effects are thought to be on-target effects, close monitoring of cardiovascular parameters, including time-matched BP measurements before and after dosing to detect any changes and potential tolerance in BP after the administration of repeat doses to participants with NT1 or NT2 were included.
For participants with NT1: • Dose Regimen 1: 0.5 mg twice daily, approximately 3 hours apart; • Dose Regimen 2: 2 mg followed by 2 mg, approximately 3 hours apart; • Dose Regimen 3: 2 mg followed by 5 mg, approximately 3 hours apart; * • Dose Regimen 4: 7 mg once daily.*
Participants completing either Example 1 or Example 2 with ≤3 months between parent study-end and LTE screening could enroll. Primary endpoint is the occurrence of treatment-emergent adverse events (TEAEs); secondary endpoints are change from baseline (parent study) in sleep onset latency on the Maintenance of Wakefulness Test (SOL-MWT), Epworth Sleepiness Scale (ESS) score, and weekly cataplexy rate (WCR). Participants with NT1 receive oral Compound A 0.5 mg twice 3 hours apart, 2 mg twice 3 hours apart, 2 mg then 5 mg 3 hours apart, or 7 mg once daily. Dose adjustments are allowed at specific timepoints (8 weeks and 12 weeks of the study and at other weeks on a sponsor-approved case-by-case basis). TEAEs are summarized under the dose at TEAE onset.

participants with NT1 [2] = experiment: Exit interviews after Week 8, Phase 2 NT1 trial; format: in vivo, human; conditions: most Compound A participants (n=21)
Method: Treatment Satisfaction Questionnaire for Medication (TSQM) and exit interview results from the study were evaluated to explore the impact of Compound A treatment on individuals with ICSD-3-confirmed NT1. Participants aged 18-70 years, with an Epworth Sleepiness Scale (ESS) score>12, and ≥4 partial/complete episodes of cataplexy/week were included in the trial. Participants were randomized to oral Compound A (0.5 mg twice 3 hours apart, 2 mg twice 3 hours apart, 2 mg then 5 mg 3 hours later, or 7 mg once daily), or placebo.
FIG. 19 and FIG. 20 show the results of exit interview outcomes at Week 8. […] Symptoms rated as most important to improve from baseline were EDS, cataplexy and impaired cognitive function (FIG. 19); most frequently cited impacts were work/school-related, social/leisure activities and general quality of life (FIG. 20). Changes in impacts were meaningful for Compound A-treated participants but not for placebo-treated participants. Overall, 94.7% of Compound A-treated participants (18/19 respondents) would be willing to recommend Compound A to others with narcolepsy.

[3] = Clinical studies of Compound A: drug-induced liver injury; format: in vivo
Excerpt: Liver function test (LFTs) (alanine aminotransferase [ALT], aspartate aminotransferase [AST], γ-glutamyl transferase [GGT], and total bilirubin) were closely monitored in this study. Stopping criteria for individual participants and the overall study, based on abnormal LFTs were established.

[4] = 0.5 mg/0.5 mg (dose at TEAE onset)

For CCS(=O)(=O)N[C@@H]1[C@H](Cc2cccc(-c3cc(F)cc(F)c3)c2F)N(C(=O)C(C)(C)O)CC1(F)F [Compound A, N-{(2S,3R)-4,4-difluoro-1-(2-hydroxy-2-methylpropanoyl)-2-[(2,3′,5′-trifluoro[1,1′-biphenyl]-3-yl)methyl]pyrrolidin-3-yl}ethanesulfonamide], the “Hepatotoxicity or visual disturbances” value (participants with NT1 [1]; LTE interim) was “No cases of hepatotoxicity or visual disturbances were reported”, the “Participants with severe drug-related TEAEs (insomnia, cataplexy)” value (participants with NT1 [1]; LTE interim (N=104)) was “Two” and the “Participants discontinued due to TEAEs” value (participants with NT1 [1]; LTE interim (N=104), 3 unrelated to Compound A) was 6. The “Participants who experienced a TEAE” value (participants with NT1 [1]; LTE interim analysis (N=104), all doses) was 54.8%, the “TEAE insomnia, frequency” value (participants with NT1 [1]; [4]) was 7.1% and the “TEAE micturition frequency, frequency” value (participants with NT1 [1]; [4]) was 10.7%. For the same compound, the “TEAE micturition urgency, frequency” value (participants with NT1 [1]; [4]) was 10.7%, the “TEAE insomnia, frequency” value (participants with NT1 [1]; 2 mg/2 mg (dose at TEAE onset)) was 10.9% and the “TEAE micturition frequency, frequency” value (participants with NT1 [1]; 2 mg/2 mg (dose at TEAE onset)) was 4.3%. For the same compound, the “TEAE micturition urgency, frequency” value (participants with NT1 [1]; 2 mg/2 mg (dose at TEAE onset)) was 2.2%, the “TEAE insomnia, frequency” value (participants with NT1 [1]; 2 mg/5 mg (dose at TEAE onset)) was 10.8% and the “TEAE micturition frequency, frequency” value (participants with NT1 [1]; 2 mg/5 mg (dose at TEAE onset)) was 8.1%. The “TEAE micturition urgency, frequency” value (participants with NT1 [1]; 2 mg/5 mg (dose at TEAE onset)) was 2.7%, the “TEAE insomnia, frequency” value (participants with NT1 [1]; 7 mg (dose at TEAE onset)) was 7.9% and the “TEAE micturition frequency, frequency” value (participants with NT1 [1]; 7 mg (dose at TEAE onset)) was 7.9%. For the same compound, the “TEAE micturition urgency, frequency” value (participants with NT1 [1]; 7 mg (dose at TEAE onset)) was 10.5%, the “Exit interview outcome: change in narcolepsy symptoms and functional impacts” value (participants with NT1 [2]) was “meaningful improvements in narcolepsy symptoms and functional impacts” and the Drug-induced liver injury [3] was “No cases of drug-induced liver injury have been reported”.

Source: patent US20250375417A1, “OREXIN RECEPTOR 2 (OX2R) AGONIST FOR USE IN NARCOLEPSY TYPE 1 (NT1)” (TAKEDA PHARMACEUTICAL COMPANY LIMITED, priority 2024, published 2025)
